The text below walks through data of patent publication US20260199343A1 (Kadmon Corporation, LLC, priority 2022, published 2026).

In one series the test system is MM1S cells. In words: Growth inhibition of MM1S cells (CellTiterGlo / Incucyte confluency). It is filed as cell-based, human. The note with it: 5-6 days. Here is the method:
(§1) On Day 1, the cells were plated at 3,000 cells per well (50 ul) using 384w plate (Costar, 3765) pre-coated with Poly-D-Lysine, spun down at 300 g for 1 min at room temperature and transferred in Incucyte S3 (37° C.; 5% CO2; every 2 h kinetic read). […] Cells were further incubated in Incucyte S3 (Sartorius) for an additional 5-6 days at 37° C., 5% CO2 with the same kinetic readings. At the end, proliferation was measured by added CellTiterGlo (Promega) to assess cell viability or by using Incucyte measuring cell confluency over time. Cell growth was normalized to DMSO (100%) and staurosporine (Sigma; […]) 1 uM (0%)).
A general note: In ATP-based viability assays light output follows the ATP content of the culture.

Another series concerns LP-1 cells. The series can be described thus: Growth inhibition of LP-1 cells (CellTiterGlo / Incucyte confluency). It is filed as cell-based, human. The note with it: LP1, 5-6 days. Here is the method: as §1
The conditions of series [1]: cited from earlier work.
The conditions of series [2]: cited from earlier work. The source holds these as a separate data set.
The test system of another series is MOLP-8. In words: MOLP-8 viability, belumosudil vs Y27632 (Example 5). In kind it is cell-based, human. The note with it: 10-40 μM (belumosudil effect starting at 10 μM), after 4 days of treatment. As for the experimental part:
MOLP-8 (DSMZ, #ACC569) were maintained in RPMI1640 complete medium (RPMI1640 supplemented with 20% FBS—Eurobio #CVFSVF06-01 and 1% L-glutamine—Gibco #25030-081), incubated at 37° C. with 5% CO2 before being used.
(§2) Before treatment, MM cells were centrifuged for 5 minutes at 300 g, counted, and resuspended in RPMI1640 complete medium to have 50000 cells/100 μl.
(§3) Compounds and cells were then added to the appropriate wells of a Corning™ 96-Well Clear Ultra Low Attachment Microplate (Corning, #7007) (final volume of each well: 200 μl). […] MOLP-8 or LP-1 or RPMI-8226 or HD NK cells (50000 cells/well) were then added to the appropriate wells. The plate was then centrifuged for 1 minute at 100 g before being placed into an incubator at 37° C. with 5% CO2 for up to 4 days.
After treatment, cells were collected and added to U bottom plates for antibody labelling. […]
(§4) To additionally assess cell viability, DAPI (Miltenyi Biotec, #130-111-570) was added in each well before plate reading by flow cytometry. Samples were then analyzed with the MACSQuant 16 flow cytometer (Miltenyi Biotec).
(§5) Data were analyzed with FlowJo software as shown in FIG. 3: (FIG. 3A) MOLP-8 cells excluding debris was gated, followed by gating for single cells (FIG. 3B). From the single cells, viable DAPI^neg cells were quantified (FIG. 3C).

A further series deals with RPMI-8226. The series can be described thus: RPMI-8226 viability, belumosudil vs Y27632 (Example 5). It is filed as cell-based, human. The note with it: 10-40 μM (belumosudil effect starting at 10 μM), after 4 days of treatment. Here is the method:
RPMI-8226 (ATCC, #CCL155) were maintained in RPMI1640 complete medium, incubated at 37° C. with 5% CO2 before being used.
as §2, §3
After treatment, cells were collected and added to U bottom plates for antibody labelling.
Then, cells were centrifuged for 5 minutes at 300 g, the supernatant removed and 200 μl of AutoMACS Running buffer (Miltenyi Biotec, #130-091-221) added to each well. […]
as §4, §5

The test system of a further series is HD NK cells. In words: HD NK cell viability, belumosudil vs Y27632 (Example 5). It is filed as cell-based, human. Particulars: 10-40 μM, after 4 days of treatment.
Source text: (§6) Healthy donor buffy coats were supplied by EFS Ile de France. Immediately after reception, the qualified buffy coats were put under gentle agitation overnight at room temperature. The following day, peripheral blood mononuclear cells (PBMCs) were isolated by Ficoll (Cytiva #17-1440-02) density gradient centrifugation. Human NK cells were purified from PBMCs with the MACSXpress Whole Blood NK cell isolation kit from Miltenyi Biotec (#130-127-695) by negative selection using manual magnetic labelling and the MACSxpress separator (Miltenyi Biotec #130-098-308). Then, purified NK cells were cultured in RPMI1640 medium supplemented with 10% foetal bovine serum (FBS) (Eurobio #CVFSVF06-01) and 1% of L-Glutamine (Gibco #25030-081). The cells were left to rest overnight at 37° C. with 5% CO2 before being used. […]
as §4, §5

In another series the test system is CD38. The note with it: bone marrow and MM cells of patients after first treatment; cited from earlier work.
Series [3] has as its system MM cell lines (LP1, MM1R, MM1S, OPM2). In words: CellTiter-Glo cell viability, panel of MM cell lines. It is filed as cell-based, human. Particulars: 8 days treatment. Here is the method:
Cell viability was measured by CellTiter-Glo, Luminescent Cell Viability Assay normalized with DMSO.

Series [4] can be described thus: HD NK cell viability by DAPI flow cytometry (Example 2). In kind it is cell-based. Particulars: human, healthy donor (HD) NK cells purified from PBMCs; high concentrations 25-40 μM, after 4 days of treatment; read-out: reduction of HD NK cells viability.
Source text: as §6, with “fetal” for “foetal”, “#25030-081).” for “#25030-081). The cells were left to rest overnight at 37° C. with 5% CO2 before being used.”
To additionally assess cell viability, DAPI (Miltenyi Biotec, #130-111-570) was added in each well before plate reading by flow cytometry. Samples were then analyzed with the MACSQuant 16 flow cytometer (Miltenyi Biotec). Data were analyzed with FlowJo software using the following strategy shown in FIGS. 3A-3D: (A) MOLP-8 cells excluding debris were gated, followed by gating for single cells (B), from single cells, viable DAPI^neg cells were quantified (C), and from DAPI^neg cells, the expression of CD38 was quantified with FITC fluorochrome (D) and expressed as median of fluorescence intensity (MFI).

A further series has as its system C-myc protein. The series can be described thus: Western blot of C-Myc in LP1 cells. It is filed as cell-based, human. Particulars: 24 hours of treatment.

Structures can show the parent of a compound that is named as a salt. Some results are limits rather than exact numbers.

For orientation: IC50 means the concentration that inhibits the measured activity by half.

On to `C[C@@H]1C[C@H]2[C@@H]3CCC4=CC(=O)C=C[C@]4(C)[C@@]3(F)[C@@H](O)C[C@]2(C)[C@@]1(O)C(=O)CO` [Dexamethasone, 9-fluoro-11β,17,21-trihydroxy-16α-methylpregna-1,4-diene-3,20-dione], for which the “growth inhibition, single agent” value in the series with MM1S cells and in the series with LP-1 cells was “single agent growth inhibition activity” throughout. Also, the solubility in water entry in series [1] is recorded as “practically insoluble in water”. Also, the stability in air entry in series [2] is “stable in air”.

For `C[C@@H](N)[C@H]1CC[C@H](C(=O)Nc2ccncc2)CC1` [Y27632], the “viability of MOLP-8 (number of cells and % of live cells)” value in the series on MOLP-8 is “does not impact viability”. Moreover, the “viability of RPMI-8226 (number of cells and % of live cells)” value in the series with RPMI-8226 was “does not impact viability”. The “HD NK cell viability” value in the series with HD NK cells is “neither belumosudil nor Y27632 impact HD NK cell viability”.

Take daratumumab: anti-CD38 antibody: the CD38 expression result in the series with CD38 is “reduced”.

`CC(C)NC(=O)COc1cccc(-c2nc(Nc3ccc4[nH]ncc4c3)c3ccccc3n2)c1` [Belumosudil mesylate, 2-{3-[4-(1H-indazol-5-ylamino)-2-quinazolinyl]phenoxy}-N-(propan-2-yl) acetamide methanesulfonate (1:1)]: the solubility in water result in series [1] is “practically insoluble in water”.

In the case of `CC(C)NC(=O)COc1cccc(-c2nc(Nc3ccc4[nH]ncc4c3)c3ccccc3n2)c1` [belumosudil, 2-{3-[4-(1H-indazol-5-ylamino)-2-quinazolinyl]phenoxy}-N-(propan-2-yl) acetamide], the IC50 in series [3] (Homo sapiens, 192 h, LP1, MM1R, MM1S, OPM2, normalized with DMSO, read-out: IC50 of MM cell line growth inhibition) lay in the range of 1 to 7 µM. In series [4], the cytotoxicity at 4 days is not above 10%.

Turning to `Nc1cccc2c1C(=O)N(C1CCC(=O)NC1=O)C2=O` (racemic) [pomalidomide, (RS)-4-Amino-2-(2,6-dioxo-piperidin-3-yl)-isoindoline-1,3-dione], in series [3], the “growth inhibition of MM cell lines” value is reported as “growth inhibition in all of these MM cell lines except LP1”. In addition, the C-myc protein level result in the series with C-myc protein is given as “very moderate effect”. Besides, the “solubility in all pH solutions” value in series [1] (all pH solutions) is “about 0.01 mg/mL”. Also, the “solubility into organic solvents” value in series [1] (organic solvents) is recorded as “limited to low solubility”.
